This passage reports Ki results from ChEMBL document CHEMBL3593236, “Cloning, characterization and anion inhibition studies of a new γ-carbonic anhydrase from the Antarctic bacterium Pseudoalteromonas haloplanktis” (Bioorg Med Chem, 2015).

SMILES strings stand for the structures. pKi: −log10 of the molar value.

This assay has as its target T1, Carbonic anhydrase (Methanosarcina thermophila, UniProt P40881).
T1 sequence (P40881 whole entry): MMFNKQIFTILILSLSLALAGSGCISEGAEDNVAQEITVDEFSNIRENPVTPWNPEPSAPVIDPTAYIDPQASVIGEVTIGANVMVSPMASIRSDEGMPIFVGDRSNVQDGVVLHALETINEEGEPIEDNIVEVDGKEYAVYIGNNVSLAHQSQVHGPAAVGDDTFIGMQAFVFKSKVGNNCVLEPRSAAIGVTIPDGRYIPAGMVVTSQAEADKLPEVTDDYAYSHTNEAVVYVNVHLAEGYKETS
Description: Inhibition of archaeon Methanosarcina thermophila gamma-CA after 15 mins by stopped-flow/Co2 hydration assay

The pKi is −log10 of the Ki, conventionally taken in molar units. A high value points to a small Ki. `[Br-].[Na+]` [SODIUM BROMIDE] showed a pKi of 0.80.

For `N#C[S-].[Na+]` [THIOCYANATE SODIUM], the pKi is 2.15.
